Entries after “also recorded” stand apart in the source; their conditions may differ. Counter-ions that a name gives are not always drawn. Like-named read-outs stand apart in the source and are kept apart here.
Columns and labels:
full-length USP7 = full-length USP7 (Homo sapiens (Human), UniProt Q93009); experiment: Enzymatic assay to determine IC50 of USP7 inhibitors (Ubiquitin-Rhodamine 110 cleavage); assay type: biochemical; conditions: for IC50: 0.5 nM USP7, 0.5 μM Ubiquitin-Rhodamine 110, 45 min at 37° C.; for inhibition at 1 µM: read-out: percent value of inhibition of USP7 activity
In short: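 Enzyme: 0.5 nM full-length USP7 in HEPES pH 7.5 buffer with NaCl, DTT, BSA and Tween20, given 15 min at room temperature with DTT before compounds were added.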

CT26 cells = experiment: Killing assay: splenocytes of tumor-bearing mice co-cultured with CT26 cells; assay type: cell-based, mouse; conditions: co-culture with CT26 cells 1:10 and 1:50, 36 h
Method: To investigate the killing capability of T cells the splenocytes were isolated from tumor-bearing mice treated and untreated with different concentrations of Example 77. CT26 cells were seeded and stained with Green Cell Tracker. Stained CT26 cells were co-cultured with splenocytes from experimental animals in two ratios 1:10 and 1:50. After 36 h cells were harvested and analyzed on the flow cytometer.

[1] = Immunomodulatory effect on isolated, anti-CD3/anti-CD28 activated CD4+ T cells from C57BL/6 mice; assay type: cell-based; conditions: C57BL/6; activated mouse CD4+ T cells, 72 h; read-out: cytotoxicity IC50 (cell viability, CellTiter Glo Assay)
From the text: (§1) Splenocytes from three C57BL/6 mice donors were isolated separately. Next, specific CD4^+ cells were extracted from all splenocytes with EasySep™ Mouse CD4^+ T cell Isolation Kit by negative selection (StemCell; Cat. #19852). The purity of splenic CD4^+ T cells exceeded 95%, as confirmed by flow cytometric analysis following staining with anti-mouse CD3 and CD4 antibodies. Pure CD4^+ cells were subsequently seeded in RPMI full medium (50 000 cells/well) on 96-well U-bottom plate covered with 1 μg/mL antiCD3 and 1 μg/mL antiCD28 (for stimulation and activation). Then. […] The final concentration of DMSO in wells was 0.03%. After 72 h, lymphocyte activation was evaluated by counting, testing viability (LDH Assay, CellTiter Glo Assay) and cytokine. Statistical significance of observed effects was determined based on mean values calculated from technical replicates for each mouse (n=9; experiment was performed three times). • 1. ATP level in cell lysates (CellTiterGlo Viability Assay. Promega;) • 2. LDH level in cell culture medium • 3. Cell counting (Orange-Acridine staining, Luna automated cell counter, Logos Biosystems) • 4. mTNF-α in supernatants (ELISA) • 5. mIFN-γ in supernatants (ELISA) • 6. Magpix Luminex (T-Cells Panel: GM-CSF, IFN-γ, IL-10 TNF-α)

CD4+ T cells [2] = experiment: as above; assay type: cell-based
From the text: as §1

CD4+ T cells [3] = experiment: In vivo and ex vivo immunomodulatory effect in BALB/c mice (splenic CD4+ T cells); assay type: cell-based
Method: BALB/c mice (10-week-old females, n=3) were administered with Example 77 at 200 mg/kg (BID) by oral gavage for 3 consecutive days. Untreated mice were used as the control group (n=3). Animals were sacrificed 16 hours following the last dosing. The spleens were collected and total CD4^+ lymphocytes were isolated by bead-based negative separation according to the manufacturers manual (EasySep™ Mouse CD4+ T cell Isolation Kit, StemCell; Cat. #19852). The purity of splenic CD4^+ T cells exceeded 95%, as confirmed by flow cytometric analysis following staining with anti-mouse CD3 and CD4 antibodies. Isolated CD4^+ T cells were seeded in triplicates (50 000 cells/well in RPMI full medium) on 96-well U-bottom plate covered with 1 μg/mL anti-CD3 and 1 μg/mL anti-CD28 antibodies (for stimulation and activation of cells). Following one hour preincubation in 37° C. degree, CD4^+ T cells were treated with 2 μM of Example 77, the final concentration of DMSO in wells was 0.03%. After 72 h lymphocytes activation was evaluated by testing viability, cytotoxicity and cytokine release: mTNF-α and mIFN-γ.
• 1. ATP level in cell lysates (CellTiterGlo Viability Assay, Promega) • 2. Lactate dehydrogenase (LDH) level in cell culture medium (LDH-Glo Cytotoxicity Assay, Promega) • 3. Cell counting (Fluorescence staining, Luna automated cell counter, Logos Biosystems) • 4. mTNF-α in supernatants by ELISA • 5. mIFN-γ in supernatants by ELISA

mouse CD8+ T cells = experiment: Cytotoxic effect on mouse CD8+ T cells (splenocytes, flow cytometry); assay type: cell-based; conditions: 24 hours of incubation
Method: In these experiments, the mouse splenocytes were seeded into in 24-well plate and after 24 hours of incubation with USP7 inhibitors the T cells viability was analyzed with flow cytometry. […] Mann-Whitney test.

[4] = test system: CT26 model of colon carcinoma; experiment: Antitumor efficacy in the subcutaneous CT26 syngeneic model of colon carcinoma
Method: The 7-8-week old BALB/c females (BALB/cAnNCrl, Charles River Laboratories) were injected subcutaneously in the right flank with 5×10^5 CT26 cells. USP7 inhibitors were dosed by oral gavage twice per day at indicated doses starting from 2-5 days after the tumor implantation. […] Tumor volume was estimated by a formula: width×length×depth×π/6.

[5] = 0.5-2.5 μM, 72 h, ELISA / Magpix Luminex
[6] = 0.5-2.5 μM, 72 h, Magpix Luminex
[7] = 2 μM, 72 h, LDH-Glo cytotoxicity assay
[8] = at 1 μM of the test compound, given where IC50 not determined yet

full-length USP7, sequence (Q93009 whole entry): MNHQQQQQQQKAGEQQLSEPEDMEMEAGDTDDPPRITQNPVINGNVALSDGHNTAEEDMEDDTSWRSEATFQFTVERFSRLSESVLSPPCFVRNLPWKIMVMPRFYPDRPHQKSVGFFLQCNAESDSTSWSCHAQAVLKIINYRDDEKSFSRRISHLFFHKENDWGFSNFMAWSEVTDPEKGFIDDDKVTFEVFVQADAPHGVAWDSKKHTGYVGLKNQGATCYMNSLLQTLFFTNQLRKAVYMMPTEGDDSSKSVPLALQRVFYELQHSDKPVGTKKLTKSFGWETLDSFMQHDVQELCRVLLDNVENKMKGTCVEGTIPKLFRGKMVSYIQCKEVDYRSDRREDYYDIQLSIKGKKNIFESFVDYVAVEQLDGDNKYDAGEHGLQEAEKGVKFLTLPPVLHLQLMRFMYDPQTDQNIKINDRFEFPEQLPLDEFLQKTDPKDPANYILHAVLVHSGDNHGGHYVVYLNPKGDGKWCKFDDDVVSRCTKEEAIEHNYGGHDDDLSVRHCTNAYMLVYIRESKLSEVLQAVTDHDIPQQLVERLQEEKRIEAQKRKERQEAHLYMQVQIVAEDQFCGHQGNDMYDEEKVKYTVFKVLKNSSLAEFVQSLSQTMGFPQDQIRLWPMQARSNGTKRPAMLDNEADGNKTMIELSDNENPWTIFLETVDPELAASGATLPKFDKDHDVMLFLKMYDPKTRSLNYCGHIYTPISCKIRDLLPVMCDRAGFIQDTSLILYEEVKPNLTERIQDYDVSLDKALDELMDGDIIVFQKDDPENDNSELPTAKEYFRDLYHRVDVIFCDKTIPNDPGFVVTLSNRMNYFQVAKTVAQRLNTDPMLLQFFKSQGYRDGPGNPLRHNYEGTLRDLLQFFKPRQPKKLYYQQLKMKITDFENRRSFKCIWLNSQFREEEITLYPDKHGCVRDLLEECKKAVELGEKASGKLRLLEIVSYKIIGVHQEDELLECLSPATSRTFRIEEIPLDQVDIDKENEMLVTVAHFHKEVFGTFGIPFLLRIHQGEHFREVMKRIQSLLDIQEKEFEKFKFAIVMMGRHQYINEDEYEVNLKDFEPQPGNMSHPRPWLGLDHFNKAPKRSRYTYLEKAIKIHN

CN[C@H]1CCN(C(=O)c2c(C)cc(C(F)(F)F)nc2-c2ccnc3cc(CN4C(=O)C5C(C4=O)C5(C)C)sc23)C1.Cl.Cl (stereo partly drawn) [Example 77, 6,6-dimethyl-3-((7-(4-methyl-3-((S)-3-(methylamino)pyrrolidine-1-carbonyl)-6-(trifluoromethyl)pyridin-2-yl)thieno[3,2-b]pyridin-2-yl)methyl)-3-azabicyclo[3.1.0]hexane-2,4-dione dihydrochloride]
IC50 (full-length USP7): < 500 nM | killing capability of splenocytes from treated CT26-bearing mice vs. control mice (CT26 cells): enhanced killing capability | IC50 at 72 h [1]: ~9000 nM | IFNg level in supernatants (CD4+ T cells [2]; [5]): Statistically significant increase | TNFa level in supernatants (CD4+ T cells [2]; [5]): not affected | GM-CSF level in supernatants (CD4+ T cells [2]; [6]): Statistically significant increase | IL-10 level in supernatants (CD4+ T cells [2]; [6]): not affected | times less cytotoxic than the reference RAPT compound (CD4+ T cells [2]; CellTiter Glo Assay, head to head): 10 | viability by cell counting (Luna cell counter, trypan blue) (CD4+ T cells [2]; after 72 h of incubation): comparable to that obtained with CellTiter Glo | CD4+ T cells activation and pro-inflammatory cytokine release (CD4+ T cells [2]; low concentration (0.5-2.5 μM)): does not disturb | pro-inflammatory cytokines release after additional ex vivo treatment of isolated T-cells (CD4+ T cells [3]; 2 μM ex vivo, 72 h): additionally increases | total ATP level (CellTiter Glo Assay) (CD4+ T cells [3]; 2 μM, 72 h): didn't affect | CD4+ T cells activation and pro-inflammatory cytokines release: TNF-α and IFN-γ (CD4+ T cells [3]; 2 μM, 72 h, ELISA): does not affect | LDH concentration in the culture medium vs. positive control (CD4+ T cells [3]; [7]): ≤ 5% | cytotoxicity for CD4+ T-cells (CD4+ T cells [3]; [7]): not cytotoxic | T cells viability (CD4+ T cells [3]; CD4+ T cells, 2 μM, 72 h): does not affect | ex vivo pro-inflammatory cytokine release of activated CD4+ T cells from treated mice vs. control mice (CD4+ T cells [3]; mice dosed 200 mg/kg BID by oral gavage for 3 days): much more | cytotoxicity to CD8 T cells (mouse CD8+ T cells): limited | TGI ([4]; 100 mg/kg PO BID, anti-PD-1 combination experiment): 69% | increase in survival time vs. anti-PD-1 monotherapy group ([4]; 100 mg/kg PO BID, log-rank test): 26% | percent of CD8+ T cells in tumor ([4]; 100 mg/kg, cytometric analysis): increase | interferon-γ production in CD8+ T cells ([4]; 100 mg/kg, data not shown): enhanced amounts | granzyme B production in CD8+ T cells ([4]; 100 mg/kg, flow cytometry): enhanced amounts | antitumor effect after injection of CD8-depleting anti-CD8 antibodies ([4]; anti-CD8 antibody 100 μg intraperitoneally on days 1, 7 and 14, dihydrochloride): completely abrogated; also recorded: requires CD8+ T cells | effect on the therapeutic effect of anti-PD-1 antibody ([4]; combination with anti-PD-1 antibody, dihydrochloride): potentiated; also recorded: increases the efficiency | tumor growth inhibition (TGI) ([4]; dose-dependent, oral gavage BID, day 20 post-inoculation, p=0.048): up to 67% | survival time ([4]; survival analysis, anti-PD-1 combination experiment): 29 days

Cc1cc(Cl)nc(-c2ccnc3cc(CN4C(=O)C5C(C4=O)C5(C)C)sc23)c1N1CCCNC1=O (centres unmarked) [Example 121, 3-((7-(6-chloro-4-methyl-3-(2-oxotetrahydropyrimidin-1(2H)-yl)pyridin-2-yl)thieno[3,2-b]pyridin-2-yl)methyl)-6,6-dimethyl-3-azabicyclo[3.1.0]hexane-2,4-dione 2,2,2-trifluoroacetate]
IC50 (full-length USP7): 500 to 1000 nM

Cc1cc(C#N)nc(-c2ccnc3cc(CN4C(=O)C5C(C4=O)C5(C)C)sc23)c1C(=O)N1CC[C@H](N(C)C)C1 (stereo partly drawn) [Example 44, 6-(2-((6,6-dimethyl-2,4-dioxo-3-azabicyclo[3.1.0]hexan-3-yl)methyl)thieno[3,2-b]pyridin-7-yl)-5-((S)-3-(dimethylamino)pyrrolidine-1-carbonyl)-4-methylpicolinonitrile hydrochloride]
IC50 (full-length USP7): 1000 to 10000 nM

Cc1cc(C(F)(F)F)nc(-c2ccnc3cc(CN4C(=O)C5C(C4=O)C5(C)C)sc23)c1C(=O)N1CCOCC1 (centres unmarked) [Example 84, 6,6-dimethyl-3-((7-(4-methyl-3-(morpholine-4-carbonyl)-6-(trifluoromethyl)pyridin-2-yl)thieno[3,2-b]pyridin-2-yl)methyl)-3-azabicyclo[3.1.0]hexane-2,4-dione hydrochloride]
IC50 (full-length USP7): 500 to 1000 nM

Cc1cc(C(F)(F)F)nc(-c2ccnc3cc(CN4C(=O)C5C(C4=O)C5(C)C)sc23)c1CC1NCCNC1=O (centres unmarked) [Example 165, 6,6-dimethyl-3-((7-(4-methyl-3-((3-oxopiperazin-2-yl)methyl)-6-(trifluoromethyl)pyridin-2-yl)thieno[3,2-b]pyridin-2-yl)methyl)-3-azabicyclo[3.1.0]hexane-2,4-dione hydrochloride]
inhibition at 1 µM (full-length USP7; [8]): 20 to 49%

Cc1cc(C(F)(F)F)nc(-c2ccnc3cc(CN4C(=O)C5C(C4=O)C5(C)C)sc23)c1NC1CCNC1 (centres unmarked) [Example 18, 6,6-dimethyl-3-((7-(4-methyl-3-(pyrrolidin-3-ylamino)-6-(trifluoromethyl)pyridin-2-yl)thieno[3,2-b]pyridin-2-yl)methyl)-3-azabicyclo[3.1.0]hexane-2,4-dione 2,2,2-trifluoroacetate]
IC50 (full-length USP7): < 500 nM

Cc1nc(C#N)cc(-c2ccnc3cc(CN4C(=O)C5C(C4=O)C5(C)C)sc23)c1C(=O)NC1CNC1 (centres unmarked) [Example 16, N-(azetidin-3-yl)-6-cyano-4-(2-((6,6-dimethyl-2,4-dioxo-3-azabicyclo[3.1.0]hexan-3-yl)methyl)thieno[3,2-b]pyridin-7-yl)-2-methylnicotinamide hydrochloride]
inhibition at 1 µM (full-length USP7; [8]): 20 to 49%

Cc1nc(C#N)cc(-c2ccnc3cc(CN4C(=O)C5C(C4=O)C5(C)C)sc23)c1C(=O)N1CCNCC1 (centres unmarked) [Example 17, 4-(2-((6,6-dimethyl-2,4-dioxo-3-azabicyclo[3.1.0]hexan-3-yl)methyl)thieno[3,2-b]pyridin-7-yl)-6-methyl-5-(piperazine-1-carbonyl)picolinonitrile hydrochloride]
IC50 (full-length USP7): 500 to 1000 nM

CC1(C)C2C(=O)N(Cc3cc4nccc(-c5nccn5CC5CNCCO5)c4s3)C(=O)C21 (centres unmarked) [Example 147, 6,6-dimethyl-3-((7-(1-(morpholin-2-ylmethyl)-1H-imidazol-2-yl)thieno[3,2-b]pyridin-2-yl)methyl)-3-azabicyclo[3.1.0]hexane-2,4-dione 2,2,2-trifluoroacetate]
inhibition at 1 µM (full-length USP7): < 20%

Source: patent publication US12404279B2, “Deubiquitinase inhibitors and methods of use thereof” (Molecure S.A., priority 2021, dated 2025)
